Reference: patent US7071205B2 (Ligand Pharmaceuticals Incorporated, priority 2002, dated 2006)
Read-outs that look alike come from different tables or passages of the source.

Columns and labels:
hPR [1] = target: T1, hPR (Homo sapiens, UniProt P06401); experiment: Cotransfection assay, PR agonist activity in CV-1 cells; format: cell-based; settings: for PR Agonist CV-1 Cells Efficacy (%): MTV-LUC reporter, percent maximal response relative to progesterone
T1 sequence (P06401 1-933): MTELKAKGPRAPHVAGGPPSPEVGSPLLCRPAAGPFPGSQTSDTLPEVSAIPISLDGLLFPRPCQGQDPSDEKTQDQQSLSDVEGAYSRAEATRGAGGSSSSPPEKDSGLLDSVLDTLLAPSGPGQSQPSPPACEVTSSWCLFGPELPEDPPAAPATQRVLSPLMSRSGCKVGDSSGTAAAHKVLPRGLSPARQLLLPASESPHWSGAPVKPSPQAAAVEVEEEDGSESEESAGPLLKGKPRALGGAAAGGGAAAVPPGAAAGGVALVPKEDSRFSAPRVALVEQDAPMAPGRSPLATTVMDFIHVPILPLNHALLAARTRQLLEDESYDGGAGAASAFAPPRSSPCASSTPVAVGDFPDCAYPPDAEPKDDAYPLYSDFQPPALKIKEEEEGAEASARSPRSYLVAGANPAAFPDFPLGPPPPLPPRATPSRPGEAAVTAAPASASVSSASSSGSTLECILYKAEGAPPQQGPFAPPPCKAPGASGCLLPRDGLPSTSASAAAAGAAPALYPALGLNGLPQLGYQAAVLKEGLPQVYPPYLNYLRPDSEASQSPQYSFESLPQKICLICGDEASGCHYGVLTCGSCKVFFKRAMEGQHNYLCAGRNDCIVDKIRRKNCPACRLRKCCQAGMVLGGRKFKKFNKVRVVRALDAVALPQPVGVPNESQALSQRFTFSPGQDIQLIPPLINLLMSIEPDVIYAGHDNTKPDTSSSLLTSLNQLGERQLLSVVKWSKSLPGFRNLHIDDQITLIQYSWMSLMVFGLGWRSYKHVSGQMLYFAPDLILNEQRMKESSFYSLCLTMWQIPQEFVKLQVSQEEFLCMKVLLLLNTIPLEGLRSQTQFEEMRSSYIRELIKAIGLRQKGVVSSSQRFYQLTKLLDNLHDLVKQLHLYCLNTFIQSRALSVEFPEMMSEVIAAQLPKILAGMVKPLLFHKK

immature rabbits = experiment: McPhail (Clauberg) assay of progestational activity; format: in vivo, rabbit; settings: minimum active dose; estradiol-primed immature rabbits, uterine glandular changes
Procedure: The in vivo activity of selected hPR modulator compounds of the present invention were evaluated utilizing the McPhail assay, according to the following illustrative Examples. The Clauberg or McPhail assay is a classic assay utilizing rabbits to measure progestational activity. […] This is followed by treatment with a progestin, which causes a large change in the glandular content of the uterus. It is this change in the glandular component, which is a measure of the progestational activity of a progestin. The measurement of these glandular changes are carried out histologically using stained sections of the uterus. The in vivo potency of the progestins is presented as the minimum active dose (MAD) in mg/kg.

hPR [2] = target: T1, hPR; experiment: Cotransfection assay, PR antagonist activity in CV-1 cells; format: cell-based; settings: for IC50: antagonist potency IC50; for PR Antagonist CV-1 Cells Efficacy (%): percent maximal response relative to reference antagonist
hPR-A = target: T2, hPR-A (Homo sapiens, UniProt P06401); experiment: Receptor competitive binding assay
T2 sequence (P06401 1-769 isoform P06401-2): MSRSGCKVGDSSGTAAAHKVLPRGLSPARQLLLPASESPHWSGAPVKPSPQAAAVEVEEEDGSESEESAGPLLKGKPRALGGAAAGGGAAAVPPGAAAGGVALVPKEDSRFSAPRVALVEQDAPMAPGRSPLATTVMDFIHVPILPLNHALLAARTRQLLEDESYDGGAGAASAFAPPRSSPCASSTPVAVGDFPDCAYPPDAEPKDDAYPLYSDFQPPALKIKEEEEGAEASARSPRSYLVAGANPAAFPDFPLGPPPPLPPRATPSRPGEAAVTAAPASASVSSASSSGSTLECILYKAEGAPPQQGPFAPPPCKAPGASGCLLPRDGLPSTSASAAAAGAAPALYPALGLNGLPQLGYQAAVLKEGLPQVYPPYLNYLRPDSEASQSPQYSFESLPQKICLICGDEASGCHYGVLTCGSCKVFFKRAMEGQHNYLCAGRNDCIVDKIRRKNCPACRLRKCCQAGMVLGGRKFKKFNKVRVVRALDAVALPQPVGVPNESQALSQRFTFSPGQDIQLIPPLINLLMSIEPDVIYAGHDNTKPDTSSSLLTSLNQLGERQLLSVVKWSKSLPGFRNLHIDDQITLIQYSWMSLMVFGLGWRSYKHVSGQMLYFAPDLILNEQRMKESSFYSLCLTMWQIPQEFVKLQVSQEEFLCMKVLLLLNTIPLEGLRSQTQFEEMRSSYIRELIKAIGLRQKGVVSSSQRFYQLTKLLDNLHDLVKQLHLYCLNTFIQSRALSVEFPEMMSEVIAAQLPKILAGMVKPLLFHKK

[3] = CV-1 cells, agonist potency EC50, read-out: PR Agonist CV-1 Cells Potency
[4] = Table 2, repeats PR agonist potency of Table 1, read-out: EC50
[5] = Table 2, repeats PR binding Ki of Table 1, read-out: ki

PR Agonist CV-1 Cells Efficacy (%) (hPR [1]; CV-1 cells) | EC50 (hPR [1]; [3]) [nM] | EC50 (hPR [1]; [4]) [nM] | IC50 (hPR [2]) [nM] | Ki (hPR-A; [5]) [nM] | Ki (hPR-A; hPR-A, read-out: PR Binding Ki) [nM] | SMILES | MAD (immature rabbits) [mg/kg] | PR Antagonist CV-1 Cells Efficacy (%) (hPR [2])
168 | 3.6 | 3.6 | > 10000 | 6.4 | 6.4 | CC1=CC(C2Oc3ccc(F)cc3-c3ccc4c(c32)C(C)=CC(C)(C)N4)CCC1 (racemic) [Compound 24, (±)-(5l,1′l)-5-(3-methyl-2-cyclohexenyl)-9-fluoro-1,2-dihydro-2,2,4-trimethyl-5H-chromeno[3,4-f]quinoline] | 0.25 | na (na = not active (i.e. efficacy of <20 and potency of >10,000))
139 | 3.4 | 3.4 | > 10000 | 3.9 | 3.9 | CC1=CC(C)(C)Nc2ccc3c(c21)C(C1CCC(C)=C1C)Oc1c(F)cc(F)cc1-3 (racemic) [Compound 71, (±)-(5l,1′l)-5-(2,3-dimethyl-2-cyclopentenyl)-7,9-difluoro-1,2-dihydro-2,2,4-trimethyl-5H-chromeno[3,4-f]quinoline] | 0.25 | na (na = not active (i.e. efficacy of <20 and potency of >10,000))
166 |  |  |  |  |  | CC1=CC(C2Oc3c(F)cc(F)cc3-c3ccc4c(c32)C(C)=CC(C)(C)N4)CCC1 (single isomer, unassigned; (-)) [Compound 38, (−)-(5l,1′l)-5-(3-methyl-2-cyclohexenyl)-7,9-difluoro-1,2-dihydro-2,2,4-trimethyl-5H-chromeno[3,4-f]quinoline] | 0.10 | na (na = not active (i.e. efficacy of <20 and potency of >10,000))
